Experimental data from BigSolDB 2.1.

CCS(=O)(=O)O.COC(=O)c1ccc2c(C(=Nc3ccc(N(C)C(=O)CN4CCN(C)CC4)cc3)c3ccccc3)c(O)[nH]c2c1
solubility (mole fraction)
Settings	in DMAc	in DMF	in acetone	in acetonitrile	in dichloromethane	in ethanol	in isopropanol	in methanol	in n-butanol	in n-propanol
278.15 K	0.000745	0.000994	3.21e-06	9.42e-06	0.000125	0.00015	1.43e-05	0.00126	1.21e-05	4.29e-05
283.15 K	0.000878	0.00129	4.13e-06	1.42e-05	0.000148	0.000179	1.93e-05	0.00149	1.44e-05	6.92e-05
288.15 K	0.0011	0.00145	4.97e-06	1.75e-05	0.000161	0.000214	2.57e-05	0.00169	1.82e-05	8.1e-05
293.15 K	0.00129	0.00165	5.92e-06	2.17e-05	0.000175	0.000253	3.39e-05	0.00203	2.33e-05	0.000103
298.15 K	0.00156	0.00182	6.97e-06	2.89e-05	0.000199	0.000298	4.44e-05	0.00238	2.7e-05	0.000131
303.15 K	0.00186	0.00206	8.32e-06	3.83e-05	0.00022	0.00035	5.75e-05	0.00281	3.54e-05	0.000156
308.15 K	0.00214	0.00239	9.74e-06	4.28e-05	0.00025	0.0004	7.4e-05	0.00341	4.5e-05	0.000207
313.15 K	0.00258	0.00271	1.08e-05	5.13e-05	–	0.000473	0.0001	0.00413	5.17e-05	0.000241
318.15 K	0.00285	0.00304	1.3e-05	6.02e-05	–	0.000546	0.000118	0.00467	7.26e-05	0.000317
323.15 K	0.00316	0.00336	1.62e-05	6.85e-05	–	0.000627	0.00015	0.00524	8.92e-05	0.000384
